Data reported in patent US9850283B2, “Macrocyclic inhibitors of the PD-1/PD-L1 and CD80(B7-1)/PD-L1 protein/protein interactions” (BRISTOL-MYERS SQUIBB COMPANY, priority 2013, dated 2017).
Positions of bridges follow the written chain, without caps; N, C: chain ends. Non-standard residues stand in square brackets, D forms with d. Residues, ends and D or L forms follow the SMILES beside them. Hyp = O=C(O)[C@@H]1C[C@@H](O)CN1; NMeNle = CCCC[C@H](NC)C(=O)O; NMeA = CN[C@@H](C)C(=O)O; Orn = NCCC[C@H](N)C(=O)O; Dab = NCC[C@H](N)C(=O)O

Legend:
Human PD-L1/PD-1 = molecular target: T1, Human PD-L1/PD-1 (Homo sapiens, UniProt Q9NZQ7); assay: HTRF PD-1-Ig/PD-L1-His binding assay (human PD-L1); conditions: cluster symbol; read-out: HTRF IC50 cluster
T1 construct: made in house; host or cells: HEK293T
T1 sequence (Q9NZQ7 with tags, fused parts or gaps): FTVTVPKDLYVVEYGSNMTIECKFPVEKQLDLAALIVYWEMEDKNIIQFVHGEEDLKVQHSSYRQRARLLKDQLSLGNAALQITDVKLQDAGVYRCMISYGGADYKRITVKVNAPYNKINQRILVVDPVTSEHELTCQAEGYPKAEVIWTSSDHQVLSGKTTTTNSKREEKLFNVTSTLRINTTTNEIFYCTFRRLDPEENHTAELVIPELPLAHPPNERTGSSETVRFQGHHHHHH
In short: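 Ig- and His-fused extracellular PD-1/PD-L1 binding in BSA/Tween-20 dPBS. HTRF with Eu anti-Ig (1 nM final) and APC anti-His (20 nM final).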

[1] = molecular target: T2, LK35.2-hPD-L1 cells / PE-labeled PD-1-Ig (Homo sapiens, UniProt Q9NZQ7); assay: LK35.2-hPD-L1 cell binding high-content screening assay; format: cell-based; conditions: cell binding assay, cell line not given; cluster symbol; read-out: CBA IC50 cluster
T2 construct: expressed in transfected cells; host or cells: LK35.2 mouse B cell line
T2 sequence (Q9NZQ7 19-290): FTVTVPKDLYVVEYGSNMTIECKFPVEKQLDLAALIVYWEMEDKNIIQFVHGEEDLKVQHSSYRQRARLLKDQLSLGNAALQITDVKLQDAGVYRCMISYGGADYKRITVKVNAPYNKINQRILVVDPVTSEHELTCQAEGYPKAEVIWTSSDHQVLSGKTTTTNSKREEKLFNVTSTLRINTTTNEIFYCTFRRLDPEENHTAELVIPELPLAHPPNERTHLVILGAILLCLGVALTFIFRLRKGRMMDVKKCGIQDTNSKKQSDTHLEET
In short: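 Compound effect on PD-1/PD-L1 binding is measured by imaging cell-associated phycoerythrin signal. Human PD-1-Ig (PE on Ig tag, 1 nM final) is applied with compound to a murine B cell line overexpressing human PD-L1 for 1 h at 37 °C in serum-containing RPMI.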

SMILES | IC50 (Human PD-L1/PD-1) [nM] | IC50 [1] [nM]
CCCC[C@H]1C(=O)N(C)[C@@H](CCCC)C(=O)N[C@@H](CCCNC(=N)N)C(=O)N[C@H](C(=O)NCC(N)=O)CSCC(=O)N[C@@H](Cc2ccc(O)cc2)C(=O)N(C)[C@@H](C)C(=O)N[C@@H](CCCN)C(=O)N2CCC[C@H]2C(=O)N[C@@H](Cc2c[nH]cn2)C(=O)N[C@@H](CC(=O)O)C(=O)N2C[C@H](O)C[C@H]2C(=O)N[C@@H](Cc2c[nH]c3ccccc23)C(=O)N[C@@H](CO)C(=O)N[C@@H](Cc2c[nH]c3ccccc23)C(=O)N1C [Example 5105] ({CH2CO}-Y[NMeA][Orn]PHD[Hyp]WSW[NMeNle][NMeNle]RCG-NH2; thioether N-14) | 6.76 to 30.3 | 4.78 to 72.9
CCCC[C@H]1C(=O)N(C)[C@@H](CCCC)C(=O)N[C@@H](CCC(=O)O)C(=O)N[C@H](C(=O)NCC(N)=O)CSCC(=O)N[C@@H](Cc2ccc(O)cc2)C(=O)N(C)[C@@H](C)C(=O)N[C@@H](CC(N)=O)C(=O)N2CCC[C@H]2C(=O)N[C@@H](Cc2c[nH]cn2)C(=O)N[C@@H](CCC(N)=O)C(=O)N2C[C@H](O)C[C@H]2C(=O)N[C@@H](Cc2c[nH]c3ccccc23)C(=O)N[C@@H](CCCCN)C(=O)N[C@@H](Cc2c[nH]c3ccccc23)C(=O)N1C [Example 5106] ({CH2CO}-Y[NMeA]NPHQ[Hyp]WKW[NMeNle][NMeNle]ECG-NH2; thioether N-14) | 0.385 to 6.74 | 0.158 to 4.71
CCCC[C@H]1C(=O)N(C)[C@@H](CCCC)C(=O)N[C@@H](CC(C)C)C(=O)N[C@H](C(=O)NCC(N)=O)CSCC(=O)N[C@@H](Cc2ccc(O)cc2)C(=O)N(C)[C@@H](C)C(=O)N[C@@H](CCN)C(=O)N2CCC[C@H]2C(=O)N[C@@H](Cc2c[nH]cn2)C(=O)N[C@@H](CCC(=O)O)C(=O)N2C[C@H](O)C[C@H]2C(=O)N[C@@H](Cc2c[nH]c3ccccc23)C(=O)N[C@@H](C(C)C)C(=O)N[C@@H](Cc2c[nH]c3ccccc23)C(=O)N1C [Example 5107] ({CH2CO}-Y[NMeA][Dab]PHE[Hyp]WVW[NMeNle][NMeNle]LCG-NH2; thioether N-14) | 6.76 to 30.3 | 4.78 to 72.9
CCCC[C@H]1C(=O)N(C)[C@@H](CCCC)C(=O)N[C@@H](CO)C(=O)N[C@H](C(=O)NCC(N)=O)CSCC(=O)N[C@@H](Cc2ccc(O)cc2)C(=O)N(C)[C@@H](C)C(=O)N[C@@H](CCN)C(=O)N2CCC[C@H]2C(=O)N[C@@H](Cc2c[nH]cn2)C(=O)N[C@@H](CCC(=O)O)C(=O)N2C[C@H](O)C[C@H]2C(=O)N[C@@H](Cc2c[nH]c3ccccc23)C(=O)N[C@@H](CO)C(=O)N[C@@H](Cc2c[nH]c3ccccc23)C(=O)N1C [Example 5108] ({CH2CO}-Y[NMeA][Dab]PHE[Hyp]WSW[NMeNle][NMeNle]SCG-NH2; thioether N-14) | 6.76 to 30.3 | 4.78 to 72.9
CCCC[C@H]1C(=O)N(C)[C@@H](CCCC)C(=O)N[C@@H](CC(C)C)C(=O)N[C@H](C(=O)NCC(N)=O)CSCC(=O)N[C@@H](Cc2ccc(O)cc2)C(=O)N(C)[C@@H](C)C(=O)N[C@@H](CC(N)=O)C(=O)N2CCC[C@H]2C(=O)N[C@@H](Cc2c[nH]cn2)C(=O)N[C@@H](CCC(N)=O)C(=O)N2C[C@H](O)C[C@H]2C(=O)N[C@@H](Cc2c[nH]c3ccccc23)C(=O)NCC(=O)N[C@@H](Cc2c[nH]c3ccccc23)C(=O)N1C [Example 5109] ({CH2CO}-Y[NMeA]NPHQ[Hyp]WGW[NMeNle][NMeNle]LCG-NH2; thioether N-14) | 0.385 to 6.74 | 0.158 to 4.71
CCCC[C@H]1C(=O)N(C)[C@@H](CCCC)C(=O)N[C@@H](CCCNC(=N)N)C(=O)N[C@H](C(=O)NCC(N)=O)CSCC(=O)N[C@@H](Cc2ccc(O)cc2)C(=O)N(C)[C@@H](C)C(=O)N[C@@H](CC(=O)O)C(=O)N2CCC[C@H]2C(=O)N[C@@H](Cc2c[nH]cn2)C(=O)N[C@@H](CCCCN)C(=O)N2C[C@H](O)C[C@H]2C(=O)N[C@@H](Cc2c[nH]c3ccccc23)C(=O)N[C@@H](CCCCN)C(=O)N[C@@H](Cc2c[nH]c3ccccc23)C(=O)N1C [Example 5110] ({CH2CO}-Y[NMeA]DPHK[Hyp]WKW[NMeNle][NMeNle]RCG-NH2; thioether N-14) | 0.385 to 6.74 | 0.158 to 4.71
